From PubChem BioAssay AID276 (DTP/NCI, 2004)
Values joined by “and” are separate entries in the source; they are usually repeats but may differ in a detail not shown here. Identical values can stand only once. Toxic doses and inconclusive results are not listed.

System: B6C3F1 mice, Lewis lung carcinoma iv, survival T/C
Test: NCI In Vivo Anticancer Drug Screen. Data for tumor model Lewis Lung Carcinoma (intravenous) in B6C3F1 mice
Conditions: endpoint: median survival time, schedule: Q01DX009 (ip), higher = longer survival
Method in brief: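 Mice carrying transplanted tumors received test compound; survival in the treated group was divided by that of the vehicle-treated control group to give the T/C value.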

[1] = dose: 0.25 mg/kg/injection, vehicle: saline
[2] = dose: 0.5 mg/kg/injection, vehicle: saline
[3] = dose: 1.0 mg/kg/injection, vehicle: saline
[4] = dose: 50.0 mg/kg/injection, vehicle: saline
[5] = dose: 100.0 mg/kg/injection, vehicle: saline
[6] = dose: 12.5 mg/kg/injection, vehicle: Klucel (hydroxypropylcellulose) (HPC)
[7] = dose: 25.0 mg/kg/injection, vehicle: Klucel (hydroxypropylcellulose) (HPC)
[8] = dose: 50.0 mg/kg/injection, vehicle: Klucel (hydroxypropylcellulose) (HPC)
[9] = dose: 100.0 mg/kg/injection, vehicle: Klucel (hydroxypropylcellulose) (HPC)

Structure (SMILES): COC(=O)C[C@](O)(CCC(C)(C)O)C(=O)O[C@@H]1C(OC)=C[C@]23CCCN2CCc2cc4c(cc2[C@H]13)OCO4
- T/C [1]: 98 % of control and 104 % of control
- T/C [2]: 103 % of control and 106 % of control
- T/C [3]: 94 % of control and 102 % of control

Structure (SMILES): Nc1ccn(C2OC(CO)C(O)C2O)c(=O)n1 (stereo not drawn)
- T/C [3]: 98 % of control
- T/C (dose: 2.0 mg/kg/injection, vehicle: saline): 97 % of control
- T/C (dose: 4.0 mg/kg/injection, vehicle: saline): 100 % of control
- T/C (dose: 15.0 mg/kg/injection, vehicle: saline): 110 % of control
- T/C [4]: 160 % of control
- T/C [5]: 203 % of control

Structure (SMILES): c1csc(C[N+]23CN4CN(CN(C4)C2)C3)c1
- T/C (dose: 12.0 mg/kg/injection, vehicle: saline): 100 % of control
- T/C (dose: 25.0 mg/kg/injection, vehicle: saline): 101 % of control
- T/C [4]: 96 % of control
- T/C [5]: 96 % of control
- T/C (dose: 200.0 mg/kg/injection, vehicle: saline): 110 % of control

Structure (SMILES): O=c1oc2c(O)c(O)cc3c(=O)oc4c(O)c(O)cc1c4c23
- T/C [6]: 105 % of control
- T/C [7]: 105 % of control
- T/C [8]: 106 % of control
- T/C [9]: 110 % of control

Structure (SMILES): COC1CC(C)C(OC)c2cc(O)cc(c2O)NC(=O)/C(C)=C/C=C\C(C)C(OC(N)=O)/C(C)=C\C(C)C1OC (stereo not drawn)
- T/C (dose: 5.0 mg/kg/injection, vehicle: saline + alcohol): 115 % of control
- T/C (dose: 10.0 mg/kg/injection, vehicle: saline + alcohol): 88 % of control

Structure (SMILES): CC1=C[S+](c2ccccc2)c2cccc3cc4ccccc4c1c23 (stereo not drawn)
- T/C (dose: 0.12 mg/kg/injection, vehicle: saline with Tween-80): 106 % of control
- T/C (dose: 0.25 mg/kg/injection, vehicle: saline with Tween-80): 113 % of control
- T/C (dose: 0.5 mg/kg/injection, vehicle: saline with Tween-80): 95 % of control
- T/C (dose: 1.0 mg/kg/injection, vehicle: saline with Tween-80): 100 % of control
- T/C (dose: 2.0 mg/kg/injection, vehicle: saline with Tween-80): 106 % of control
- T/C (dose: 4.0 mg/kg/injection, vehicle: saline with Tween-80): 101 % of control

Structure (SMILES): [Na+]
- T/C (dose: 50.0 mg/kg/injection, vehicle: water): 102 % of control
- T/C (dose: 100.0 mg/kg/injection, vehicle: water): 99 % of control
- T/C (dose: 200.0 mg/kg/injection, vehicle: water): 95 % of control
- T/C (dose: 400.0 mg/kg/injection, vehicle: water): 94 % of control
- T/C (dose: 800.0 mg/kg/injection, vehicle: water): 108 % of control

Structure (SMILES): O=C1c2c(O)ccc(O)c2C(=O)c2c(NCCNCCO)ccc(NCCNCCO)c21
- T/C (dose: 0.12 mg/kg/injection, vehicle: saline): 94 % of control
- T/C (dose: 0.12 mg/kg/injection, vehicle: water): 104 % of control
- T/C [1]: 101 % of control
- T/C (dose: 0.25 mg/kg/injection, vehicle: water): 106 % of control
- T/C [2]: 100 % of control
- T/C (dose: 0.5 mg/kg/injection, vehicle: water): 110 % of control
- T/C [3]: 123 % of control
- T/C (dose: 1.0 mg/kg/injection, vehicle: water): 120 % of control

Structure (SMILES): Cc1cc(Nc2ccc3c(c2)OCO3)c2cc3c(cc2n1)OCO3
- T/C [6]: 100 % of control
- T/C [7]: 98 % of control
- T/C [8]: 98 % of control and 104 % of control
- T/C [9]: 101 % of control

Structure (SMILES): O=S(=O)(CCl)OCCCl
- T/C (dose: 6.25 mg/kg/injection, vehicle: saline with Tween-80): 103 % of control and 86 % of control
- T/C (dose: 12.5 mg/kg/injection, vehicle: saline with Tween-80): 100 % of control and 111 % of control
- T/C (dose: 25.0 mg/kg/injection, vehicle: saline with Tween-80): 99 % of control and 101 % of control and 109 % of control
- T/C (dose: 50.0 mg/kg/injection, vehicle: saline with Tween-80): 104 % of control and 114 % of control and 88 % of control
- T/C (dose: 100.0 mg/kg/injection, vehicle: saline with Tween-80): 118 % of control and 258 % of control
